This is an account of results in patent US10717716B2, “1,3,4-oxadiazole derivative compounds as histone deacetylase 6 inhibitor, and the pharmaceutical composition comprising the same” (Chong Kun Dang Pharmaceutical Corp., priority 2015, dated 2020).

pIC50: −log10 of the molar value.

For the assay, the target named is T1, human recombinant HDAC6 (Homo sapiens, UniProt Q9UBN7).
T1 construct: purchased Calbiochem 382180
T1 sequence (Q9UBN7 1-1215): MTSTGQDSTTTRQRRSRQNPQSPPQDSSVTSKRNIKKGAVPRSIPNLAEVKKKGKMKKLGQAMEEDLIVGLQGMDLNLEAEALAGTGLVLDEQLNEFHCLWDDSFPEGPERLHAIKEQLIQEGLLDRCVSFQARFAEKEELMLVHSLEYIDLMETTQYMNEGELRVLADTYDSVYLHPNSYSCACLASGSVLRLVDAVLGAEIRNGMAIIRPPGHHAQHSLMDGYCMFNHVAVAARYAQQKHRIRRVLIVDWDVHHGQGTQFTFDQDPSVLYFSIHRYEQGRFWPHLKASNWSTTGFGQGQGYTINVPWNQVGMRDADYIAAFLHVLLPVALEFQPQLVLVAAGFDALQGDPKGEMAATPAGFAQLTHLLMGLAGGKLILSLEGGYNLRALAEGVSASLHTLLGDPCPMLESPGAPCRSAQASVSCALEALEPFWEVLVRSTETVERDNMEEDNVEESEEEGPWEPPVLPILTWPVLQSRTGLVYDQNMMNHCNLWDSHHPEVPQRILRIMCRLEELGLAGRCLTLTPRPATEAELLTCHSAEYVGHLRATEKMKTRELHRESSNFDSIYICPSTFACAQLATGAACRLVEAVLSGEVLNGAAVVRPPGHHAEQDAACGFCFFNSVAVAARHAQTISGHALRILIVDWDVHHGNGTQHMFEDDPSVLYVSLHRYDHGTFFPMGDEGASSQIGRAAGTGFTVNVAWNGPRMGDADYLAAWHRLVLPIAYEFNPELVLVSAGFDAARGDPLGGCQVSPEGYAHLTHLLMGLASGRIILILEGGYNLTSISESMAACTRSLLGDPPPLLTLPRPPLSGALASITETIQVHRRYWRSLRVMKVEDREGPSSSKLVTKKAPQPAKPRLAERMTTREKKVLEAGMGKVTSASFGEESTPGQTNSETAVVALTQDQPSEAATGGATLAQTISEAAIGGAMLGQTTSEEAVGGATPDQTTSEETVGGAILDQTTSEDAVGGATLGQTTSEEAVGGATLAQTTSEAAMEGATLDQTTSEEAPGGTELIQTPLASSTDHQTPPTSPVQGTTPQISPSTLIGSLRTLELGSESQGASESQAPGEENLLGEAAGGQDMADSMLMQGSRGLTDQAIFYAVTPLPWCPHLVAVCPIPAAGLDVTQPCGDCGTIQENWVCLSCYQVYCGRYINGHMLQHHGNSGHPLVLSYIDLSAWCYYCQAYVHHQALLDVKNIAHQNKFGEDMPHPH
Kind of assay: HDAC6 enzyme activity inhibition assay (HDAC Fluorimetric Drug Discovery Kit). Type of assay: biochemical. Conditions: for HDAC6 selectivity (fold): HDAC6 over HDAC1; for pIC50: human recombinant HDAC6, same protocol as HDAC1, read-out: HDAC6. Put shortly: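 Fluorimetric deacetylase assay: 5-fold serial compound dilutions, 0.3 μg recombinant human enzyme (HDAC1 or HDAC6, same protocol), 10 μM Fluor de Lys-SIRT1 substrate, 60 min at 30 °C. Signal developed 30 min, measured at 360/460 nm; IC50 values derived.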

For `O=C(N1CC2(COC2)C1)N(Cc1ccc(-c2nnc(C(F)F)o2)cc1F)c1cccc(F)c1` [Compound 21759, N-(4-(5-(difluoromethyl)-1,3,4-oxadiazol-2-yl)-2-fluorobenzyl)-N-(3-fluorophenyl)-2-oxa-6-azaspiro[3.3]heptane-6-carboxamide], the “HDAC6 selectivity (fold)” value came to 405 fold and the pIC50 is 7.60.

Turning to `Cc1cccc(N(Cc2ccc(-c3nnc(C(F)F)o3)cc2F)C(=O)N2CC3(COC3)C2)c1` [Compound 21760, N-(4-(5-(difluoromethyl)-1,3,4-oxadiazol-2-yl)-2-fluorobenzyl)-N-(m-tolyl)-2-oxa-6-azaspiro[3.3]heptane-6-carboxamide], the “HDAC6 selectivity (fold)” value was 215 fold and the pIC50 was 7.34.

For the compound `CCN1CC2(CCN(C(=O)N(Cc3ccc(-c4nnc(C(F)F)o4)cc3F)c3ccc4cnn(C)c4c3)CC2)C1` [Compound 21765, N-(4-(5-(Difluoromethyl)-1,3,4-oxadiazol-2-yl)-2-fluorobenzyl)-2-ethyl-N-(1-methyl-1H-indazol-6-yl)-2,7-diazaspiro[3.5]nonane-7-carboxamide], the “HDAC6 selectivity (fold)” value is listed as 88 fold and the pIC50 was 6.94.

Regarding `O=C(N1CCOCC1)N(Cc1ccc(-c2nnc(C(F)F)o2)nc1)c1ccc(F)c(Cl)c1` [Compound 21766, N-(3-Chloro-4-fluorophenyl)-N-((6-(5-(difluoromethyl)-1,3,4-oxadiazol-2-yl)pyridin-3-yl)methyl)morpholine-4-carboxamide], the “HDAC6 selectivity (fold)” value is recorded as 88 fold and the pIC50 is 6.94.

As for `O=C(N1CCS(=O)(=O)CC1)N(Cc1ccc(-c2nnc(C(F)F)o2)nc1)c1ccc(F)c(Cl)c1` [Compound 21767, N-(3-Chloro-4-fluorophenyl)-N-((6-(5-(difluoromethyl)-1,3,4-oxadiazol-2-yl)pyridin-3-yl)methyl)thiomorpholine-4-carboxamide 1,1-dioxide], the “HDAC6 selectivity (fold)” value worked out at 9 fold and the pIC50 is 5.94.

Consider `O=C(N1CCS(=O)(=O)CC1)N(Cc1ccc(-c2nnc(C(F)F)o2)cc1F)c1ccc2c(c1)CCC2` [Compound 21797, N-(4-(5-(Difluoromethyl)-1,3,4-oxadiazol-2-yl)-2-fluorobenzyl)-N-(2,3-dihydro-1H-inden-5-yl)thiomorpholine-4-carboxamide 1,1-dioxide], for which the “HDAC6 selectivity (fold)” value is listed as 37 fold and the pIC50 was 6.57.

Regarding `CC1(C)Cc2cccc(N(Cc3ccc(-c4nnc(C(F)F)o4)cc3F)C(=O)N3CCS(=O)(=O)CC3)c2O1` [Compound 21798, N-(4-(5-(Difluoromethyl)-1,3,4-oxadiazol-2-yl)-2-fluorobenzyl)-N-(2,2-dimethyl-2,3-dihydrobenzofuran-7-yl)thiomorpholine-4-carboxamide 1,1-dioxide], the “HDAC6 selectivity (fold)” value is reported as 8 fold and the pIC50 was 5.88.

`Cn1ccc2cc(N(Cc3ccc(-c4nnc(C(F)F)o4)cc3F)C(=O)N3CCS(=O)(=O)CC3)ccc21` [Compound 21799, N-(4-(5-(difluoromethyl)-1,3,4-oxadiazol-2-yl)-2-fluorobenzyl)-N-(1-methyl-1H-indol-5-yl)thiomorpholine-4-carboxamide 1,1-dioxide]: the “HDAC6 selectivity (fold)” value worked out at 33 fold and the pIC50 is 6.52.

Regarding `O=C(N1CCS(=O)(=O)CC1)N(Cc1ccc(-c2nnc(C(F)F)o2)cc1F)c1ccc(F)cc1` [Compound 21806, N-(4-(5-(difluoromethyl)-1,3,4-oxadiazol-2-yl)-2-fluorobenzyl)-N-(4-fluorophenyl)thiomorpholine-4-carboxamide 1,1-dioxide], the “HDAC6 selectivity (fold)” value is reported as 261 fold and the pIC50 is 7.42.

Regarding `O=C(N1CCS(=O)(=O)CC1)N(Cc1ccc(-c2nnc(C(F)F)o2)cc1F)c1cccc(F)c1` [Compound 21807, N-(4-(5-(difluoromethyl)-1,3,4-oxadiazol-2-yl)-2-fluorobenzyl)-N-(3-fluorophenyl)thiomorpholine-4-carboxamide 1,1-dioxide], the “HDAC6 selectivity (fold)” value is given as 256 fold and the pIC50 was 7.41.

In the case of `O=C(N1CCS(=O)(=O)CC1)N(Cc1ccc(-c2nnc(C(F)F)o2)cc1F)c1ccc(Cl)cc1` [Compound 21809, N-(4-chlorophenyl)-N-(4-(5-(difluoromethyl)-1,3,4-oxadiazol-2-yl)-2-fluorobenzyl)thiomorpholine-4-carboxamide 1,1-dioxide], the “HDAC6 selectivity (fold)” value is listed as 174 fold and the pIC50 was 7.24.

Regarding `CCn1ncc2ccc(N(Cc3ccc(-c4nnc(C(F)F)o4)cc3F)C(=O)N3CCS(=O)(=O)CC3)cc21` [Compound 21811, N-(4-(5-(Difluoromethyl)-1,3,4-oxadiazol-2-yl)-2-fluorobenzyl)-N-(1-ethyl-1H-indazol-6-yl)thiomorpholine-4-carboxamide 1,1-dioxide], the “HDAC6 selectivity (fold)” value is given as 144 fold and the pIC50 was 7.15.

Regarding `CC(C)n1ncc2ccc(N(Cc3ccc(-c4nnc(C(F)F)o4)cc3F)C(=O)N3CCS(=O)(=O)CC3)cc21` [Compound 21812, N-(4-(5-(Difluoromethyl)-1,3,4-oxadiazol-2-yl)-2-fluorobenzyl)-N-(1-isopropyl-1H-indazol-6-yl)thiomorpholine-4-carboxamide 1,1-dioxide], the “HDAC6 selectivity (fold)” value was determined as 94 fold and the pIC50 is 6.97.

Consider `CC(C)c1nc2ccc(N(Cc3ccc(-c4nnc(C(F)F)o4)cc3F)C(=O)N3CCS(=O)(=O)CC3)cc2s1` [Compound 21813, N-(4-(5-(Difluoromethyl)-1,3,4-oxadiazol-2-yl)-2-fluorobenzyl)-N-(2-isopropylbenzo[d]thiazol-6-yl)thiomorpholine-4-carboxamide 1,1-dioxide], for which the “HDAC6 selectivity (fold)” value amounted to 30 fold and the pIC50 is 6.48.

As to `O=C(N1CCOCC1)N(Cc1ccc(-c2nnc(C(F)F)o2)cc1F)c1ccc(F)cc1` [Compound 21841, N-(4-(5-(difluoromethyl)-1,3,4-oxadiazol-2-yl)-2-fluorobenzyl)-N-(4-fluorophenyl)morpholine-4-carboxamide], the “HDAC6 selectivity (fold)” value is given as 382 fold and the pIC50 is 7.59.

Take `O=C(N1CCOCC1)N(Cc1ccc(-c2nnc(C(F)F)o2)cn1)c1cccc(F)c1` [Compound 21843, N-((5-(5-(difluoromethyl)-1,3,4-oxadiazol-2-yl)pyridin-2-yl)methyl)-N-(3-fluorophenyl) morpholine-4-carboxamide]: the “HDAC6 selectivity (fold)” value worked out at 461 fold and the pIC50 is 7.66.

For `O=C(N1CCOCC1)N(Cc1ccc(-c2nnc(C(F)F)o2)cc1F)c1ccc(Cl)cc1` [Compound 21849, N-(4-chlorophenyl)-N-(4-(5-(difluoromethyl)-1,3,4-oxadiazol-2-yl)-2-fluorobenzyl)morpholine-4-carboxamide], the “HDAC6 selectivity (fold)” value turned out to be 95 fold and the pIC50 is 6.97.

As for `O=C(N1CCOCC1)N(Cc1ccc(-c2nnc(C(F)F)o2)cn1)c1cccc(Cl)c1` [Compound 21851, N-(3-chlorophenyl)-N-((5-(5-(difluoromethyl)-1,3,4-oxadiazol-2-yl)pyridin-2-yl)methyl) morpholine-4-carboxamide], the “HDAC6 selectivity (fold)” value is 407 fold and the pIC50 is 7.60.
